Assay results taken from the NIST ThermoML archive (doi:10.1021/je900596d).

Details: 362.9 K, Liquid, Vibrating tube method

FC(F)=C(F)C(F)(F)F [hexafluoropropene]
Details	mass density [kg/m3]
5080.8 kPa	959.79
5112.9 kPa	961.66
5146 kPa	963.53
5179.5 kPa	965.35
5212.8 kPa	967.09
5246.7 kPa	968.92
5279.6 kPa	970.74
5314.8 kPa	972.51
5347.4 kPa	974.13
5381.2 kPa	975.88
5415.7 kPa	977.6
5518.8 kPa	982.72
5553.4 kPa	984.34
5588.2 kPa	985.96
5623.1 kPa	987.64
5657.5 kPa	989.1
5693.5 kPa	990.75
5727.5 kPa	992.15
5764.4 kPa	993.86
5798.2 kPa	995.17
5832.3 kPa	996.63
5864.9 kPa	997.97
5898.1 kPa	999.35
5930.9 kPa	1000.69
5965 kPa	1002.21
6035.1 kPa	1005.02
6069.8 kPa	1006.31
6105.1 kPa	1007.76
6137.3 kPa	1008.98
6172 kPa	1010.25
6204.9 kPa	1011.55
6239.5 kPa	1012.84
6274 kPa	1014.15
6308.5 kPa	1015.34
6343.7 kPa	1016.69
6377.6 kPa	1017.96
6413.1 kPa	1019.11
6447.2 kPa	1020.3
6480.8 kPa	1021.47
6516.3 kPa	1022.68
6550 kPa	1023.83
6584.4 kPa	1025.06
6618.1 kPa	1026.09
6653.8 kPa	1027.34
6686.8 kPa	1028.37
6720.5 kPa	1029.53
6754.6 kPa	1030.75
6789.1 kPa	1031.78
6824.9 kPa	1032.91
6860.3 kPa	1034.08
6893.3 kPa	1035.1
6959.4 kPa	1037.09
6993.3 kPa	1038.11
7029.7 kPa	1039.21
7062.9 kPa	1040.15
7097.9 kPa	1041.26
7134 kPa	1042.28
7168.5 kPa	1043.39
7202.4 kPa	1044.3
7237.6 kPa	1045.38
7273.1 kPa	1046.4
7307.6 kPa	1047.38
7378 kPa	1049.33
7411.6 kPa	1050.3
7482.4 kPa	1052.26
7514.7 kPa	1053.12
7547 kPa	1053.95
7581.8 kPa	1054.97
7615.4 kPa	1055.85
7651.7 kPa	1056.85
7689.7 kPa	1057.93
7725.6 kPa	1058.74
7762.3 kPa	1059.79
7796.7 kPa	1060.54
7833.4 kPa	1061.54
7869.9 kPa	1062.44
7906.3 kPa	1063.38
7940.8 kPa	1064.3
7976.7 kPa	1065.12
8010.3 kPa	1065.98
8045.2 kPa	1066.87
8081.6 kPa	1067.62
8115 kPa	1068.6
8149.9 kPa	1069.37
8185.9 kPa	1070.21
8223.3 kPa	1071.09
8281.3 kPa	1072.48
8320.9 kPa	1073.52
8358.3 kPa	1074.27
8396.8 kPa	1075.12
8431.8 kPa	1075.97
8468.6 kPa	1076.79
8505.7 kPa	1077.66
8541.8 kPa	1078.5
8577.3 kPa	1079.34
8611.7 kPa	1080.05
8649.3 kPa	1080.92
8689.4 kPa	1081.74
8724.6 kPa	1082.52
8800.2 kPa	1084.14
8834.9 kPa	1084.87
8868.8 kPa	1085.56
8902.9 kPa	1086.27
8937.5 kPa	1087.05
8971.8 kPa	1087.76
9005.2 kPa	1088.42
9039.7 kPa	1089.26
9073.1 kPa	1089.94
9106.5 kPa	1090.69
9140.8 kPa	1091.37
9173.4 kPa	1092.03
9205.8 kPa	1092.74
9239.9 kPa	1093.42
9274.7 kPa	1094.03
9308.6 kPa	1094.75
9341.7 kPa	1095.45
9377.4 kPa	1096.15
9410.8 kPa	1096.73
9445.5 kPa	1097.46
9479.4 kPa	1098.06
9548.7 kPa	1099.5
9582.4 kPa	1100.15
9618.6 kPa	1100.84
9652.6 kPa	1101.51
9687.1 kPa	1102.18
9721.9 kPa	1102.81
9756.1 kPa	1103.39
9789.2 kPa	1104.04
9822.6 kPa	1104.65
9858.4 kPa	1105.3
9893.4 kPa	1106.05
9929.5 kPa	1106.67
9963.2 kPa	1107.25
9996.5 kPa	1107.93
